{"source": "patent US12378231B2", "about": "“Small molecules as monoacylglycerol lipase (MAGL) inhibitors, compositions and use thereof” (APOGEE PHARMACEUTICALS, INC., priority 2023, dated 2025)", "key": {"[1]": {"molecular_target": "human recombinant FAAH (Homo sapiens (Human), UniProt O00519)", "sequence (O00519 whole entry)": "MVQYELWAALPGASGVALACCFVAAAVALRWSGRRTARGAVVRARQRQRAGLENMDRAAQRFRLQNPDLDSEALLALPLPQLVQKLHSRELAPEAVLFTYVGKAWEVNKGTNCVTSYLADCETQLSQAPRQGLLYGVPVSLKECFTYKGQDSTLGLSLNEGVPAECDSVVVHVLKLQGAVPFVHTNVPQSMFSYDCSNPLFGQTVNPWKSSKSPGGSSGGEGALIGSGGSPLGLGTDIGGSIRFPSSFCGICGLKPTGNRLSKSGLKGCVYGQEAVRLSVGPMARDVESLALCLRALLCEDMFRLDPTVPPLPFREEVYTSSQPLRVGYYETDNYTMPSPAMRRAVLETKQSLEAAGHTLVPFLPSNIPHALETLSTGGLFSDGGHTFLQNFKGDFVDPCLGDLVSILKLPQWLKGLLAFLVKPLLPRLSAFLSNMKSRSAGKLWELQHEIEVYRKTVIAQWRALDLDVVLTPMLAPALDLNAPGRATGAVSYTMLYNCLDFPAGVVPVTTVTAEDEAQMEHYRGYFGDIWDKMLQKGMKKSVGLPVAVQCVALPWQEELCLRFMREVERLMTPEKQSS", "assay": "In vitro inhibition of human recombinant FAAH activity (Cayman FAAH inhibitor screening kit, AMC arachidonoyl amide hydrolysis)", "format": "biochemical", "from_the_text": "In brief, FAAH hydrolyzes AMC arachidonoyl amide resulting in the release of the fluorescent product, while the inhibitor will inhibit the FAAH activity and thus reduce the fluorescent signal."}, "[2]": {"molecular_target": "human recombinant MAGL (Homo sapiens (Human), UniProt Q99685)", "sequence (Q99685 whole entry)": "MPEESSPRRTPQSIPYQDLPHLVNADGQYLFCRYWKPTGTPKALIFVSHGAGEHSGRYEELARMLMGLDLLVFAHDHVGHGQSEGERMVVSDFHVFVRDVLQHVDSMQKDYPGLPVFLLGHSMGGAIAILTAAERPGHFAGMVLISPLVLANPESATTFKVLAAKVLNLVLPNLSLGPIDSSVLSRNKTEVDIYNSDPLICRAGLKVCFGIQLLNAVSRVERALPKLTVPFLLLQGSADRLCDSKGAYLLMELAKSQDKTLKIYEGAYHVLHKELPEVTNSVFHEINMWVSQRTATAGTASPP", "assay": "In vitro inhibition of human recombinant MAGL activity (Cayman inhibitor screening kit, 4-nitrophenylacetate hydrolysis)", "format": "biochemical", "from_the_text": "The inhibitory effect of the synthetic chemicals on activity of human recombinant MAGL was studied using commercial inhibitor screening kit (Cayman Chemical). […] The absorbance of the yellow product can be analyzed using the plate reader. […]"}, "[3]": {"conditions": "human recombinant MAGL, read-out: Inhibition on MAGL activity (IC50)"}}, "note": "pIC50: −log10 of the molar value. Like-named read-outs stand apart in the source and are kept apart here."}
{"smiles": "O=C(N1CCN(C(c2ccc3c(c2)COCO3)c2ccc3c(c2)COCO3)CC1)n1nnc2cc(Br)ccc21", "note": "[Example 38, (4-(bis(4H-benzo[d][1,3]dioxin-6-yl)methyl)piperazin-1-yl)(5-bromo-1H-benzo[d][1,2,3]triazol-1-yl)methanone]", "values": [{"measurement": "pIC50", "setting": "[1]", "value": "< 4.30"}, {"measurement": "pIC50", "setting": "[2]; [3]", "value": "7.00 to 8.00"}]}
{"smiles": "N#Cc1ccc2nnn(C(=O)N3CCCN(C(c4ccc5c(c4)COCO5)c4ccc5c(c4)COCO5)CC3)c2c1", "note": "[Example 51, 1-(4-(bis(4H-benzo[d][1,3]dioxin-6-yl)methyl)-1,4-diazepane-1-carbonyl)-1H-benzo[d][1,2,3]triazole-6-carbonitrile]", "values": [{"measurement": "pIC50", "setting": "[1]", "value": "< 5.00"}, {"measurement": "pIC50", "setting": "[2]; [3]", "value": "7.00 to 8.00"}]}
{"smiles": "O=C(N1CCN(C(c2ccc3c(c2)COCO3)c2ccc3c(c2)COCO3)CC1)n1cncn1", "note": "[Example 10, (4-(bis(4H-benzo[d][1,3]dioxin-6-yl)methyl)piperazin-1-yl)(1H-1,2,4-triazol-1-yl)methanone]", "values": [{"measurement": "pIC50", "setting": "[1]", "value": "5.00 to 6.00"}, {"measurement": "pIC50", "setting": "[2]; [3]", "value": "7.00 to 8.00"}]}
{"smiles": "COc1ccc(C(c2ccc(OC)cc2)N2CCN(C(=O)n3cnc(C#N)n3)CC2)cc1", "note": "[Example 90, 1-(4-(bis(4-methoxyphenyl)methyl)piperazine-1-carbonyl)-1H-1,2,4-triazole-3-carbonitrile]", "values": [{"measurement": "pIC50", "setting": "[1]", "value": "5.00 to 6.00"}, {"measurement": "pIC50", "setting": "[2]; [3]", "value": "8.00 to 9.00"}]}
{"smiles": "N#Cc1ncn(C(=O)N2C3CCC2CC(C(c2ccc4c(c2)COCO4)c2ccc4c(c2)COCO4)C3)n1", "note": "(stereo not shown) [Example 130, 1-(3-(bis(4H-benzo[d][1,3]dioxin-6-yl)methyl)-8-azabicyclo[3.2.1]octane-8-carbonyl)-1H-1,2,4-triazole-3-carbonitrile]", "values": [{"measurement": "pIC50", "setting": "[1]", "value": "< 4.30"}, {"measurement": "pIC50", "setting": "[2]", "value": "8.00 to 9.00"}]}
{"smiles": "N#Cc1ncn(C(=O)N2CC3(CC(=C(c4ccc5c(c4)COCO5)c4ccc5c(c4)COCO5)C3)C2)n1", "note": "[Example 126, 1-(6-(bis(4H-benzo[d][1,3]dioxin-6-yl)methylene)-2-azaspiro[3.3]heptane-2-carbonyl)-1H-1,2,4-triazole-3-carbonitrile]", "values": [{"measurement": "pIC50", "setting": "[1]", "value": "5.00 to 6.00"}, {"measurement": "pIC50", "setting": "[2]; [3]", "value": "8.00 to 9.00"}]}
{"smiles": "O=C(N1CCN(C(c2ccc3c(c2)COCO3)c2ccc3c(c2)COCO3)CC1)n1ccnc1", "note": "[Example 9, (4-(bis(4H-benzo[d][1,3]dioxin-6-yl)methyl)piperazin-1-yl)(1H-imidazol-1-yl)methanone]", "values": [{"measurement": "pIC50", "setting": "[1]", "value": "< 5.00"}, {"measurement": "pIC50", "setting": "[2]; [3]", "value": "< 7.00"}]}
{"smiles": "COc1cccc(C(c2cccc(OC)c2)N2CCN(C(=O)n3cnc(C#N)n3)CC2)c1", "note": "[Example 97, 1-(4-(bis(3-methoxyphenyl)methyl)piperazine-1-carbonyl)-1H-1,2,4-triazole-3-carbonitrile]", "values": [{"measurement": "pIC50", "setting": "[1]", "value": "5.00 to 6.00"}, {"measurement": "pIC50", "setting": "[2]; [3]", "value": "8.00 to 9.00"}]}
{"smiles": "Cn1ncc2cc(C(c3ccc4c(cnn4C)c3)N3CCN(C(=O)n4cnc(C#N)n4)CC3)ccc21", "note": "[Example 111, 1-(4-(bis(1-methyl-1H-indazol-5-yl)methyl)piperazine-1-carbonyl)-1H-1,2,4-triazole-3-carbonitrile]", "values": [{"measurement": "pIC50", "setting": "[1]", "value": "~5.00"}, {"measurement": "pIC50", "setting": "[2]; [3]", "value": "8.00 to 9.00"}]}
{"smiles": "CCC(CC)OC(=O)N1CCN(C(c2ccc3c(c2)COCO3)c2ccc3c(c2)COCO3)CC1", "note": "[Example 15, pentan-3-yl 4-(bis(4H-benzo[d][1,3]dioxin-6-yl)methyl)piperazine-1-carboxylate]", "values": [{"measurement": "pIC50", "setting": "[1]", "value": "< 4.30"}, {"measurement": "pIC50", "setting": "[2]; [3]", "value": "< 7.00"}]}
{"smiles": "COc1ccc(C(c2ccc(F)cc2)N2CCN(C(=O)n3nnc4cc(C#N)ccc43)CC2)cc1", "note": "(stereo not shown) [Example 87, 1-(4-((4-fluorophenyl)(4-methoxyphenyl)methyl)piperazine-1-carbonyl)-1H-benzo[d][1,2,3]triazole-5-carbonitrile]", "values": [{"measurement": "pIC50", "setting": "[1]", "value": "5.00 to 7.00"}, {"measurement": "pIC50", "setting": "[2]; [3]", "value": "8.00 to 9.00"}]}
{"smiles": "O=C(N1CCN(C(c2ccc3c(c2)COCO3)c2ccc3c(c2)COCO3)CC1)n1nnc2cc3c(cc21)OCCO3", "note": "[Example 46, (4-(bis(4H-benzo[d][1,3]dioxin-6-yl)methyl)piperazin-1-yl)(6,7-dihydro-1H-[1,4]dioxino[2′,3′:4,5]benzo[1,2-d][1,2,3]triazol-1-yl)methanone]", "values": [{"measurement": "pIC50", "setting": "[1]", "value": "< 5.00"}, {"measurement": "pIC50", "setting": "[2]; [3]", "value": "7.00 to 8.00"}]}
{"smiles": "N#Cc1ncn(C(=O)N2CCN(C(c3ccc4c(c3)OCCO4)c3ccc4c(c3)OCCO4)CC2)n1", "note": "[Example 92, 1-(4-(bis(2,3-dihydrobenzo[b][1,4]dioxin-6-yl)methyl)piperazine-1-carbonyl)-1H-1,2,4-triazole-3-carbonitrile]", "values": [{"measurement": "pIC50", "setting": "[1]", "value": "~5.00"}, {"measurement": "pIC50", "setting": "[2]; [3]", "value": "8.00 to 9.00"}]}
{"smiles": "Cn1ncc2cc(C(=C3CCN(C(=O)n4cnc(C#N)n4)CC3)c3ccc4c(cnn4C)c3)ccc21", "note": "[Example 123, 1-(4-(bis(1-methyl-1H-indazol-5-yl)methylene)piperidine-1-carbonyl)-1H-1,2,4-triazole-3-carbonitrile]", "values": [{"measurement": "pIC50", "setting": "[1]", "value": "~5.00"}, {"measurement": "pIC50", "setting": "[2]; [3]", "value": "8.00 to 9.00"}]}
{"smiles": "O=C(N1CCN(C(c2ccc3ncccc3c2)c2ccc3ncccc3c2)CC1)n1nnc2ccccc21", "note": "[Example 109, (1H-benzo[d][1,2,3]triazol-1-yl)(4-(di(quinolin-6-yl)methyl)piperazin-1-yl)methanone]", "values": [{"measurement": "pIC50", "setting": "[1]", "value": "~4.30"}, {"measurement": "pIC50", "setting": "[2]; [3]", "value": "7.00 to 8.00"}]}
{"smiles": "Cn1ncc2cc(C(c3ccc4c(cnn4C)c3)N3CCN(C(=O)n4nnc5ccccc54)CC3)ccc21", "note": "[Example 112, (1H-benzo[d][1,2,3]triazol-1-yl)(4-(bis(1-methyl-1H-indazol-5-yl)methyl)piperazin-1-yl)methanone]", "values": [{"measurement": "pIC50", "setting": "[1]", "value": "~4.30"}, {"measurement": "pIC50", "setting": "[2]; [3]", "value": "7.00 to 8.00"}]}
{"smiles": "CN(CCOC(c1ccc2c(c1)COCO2)c1ccc2c(c1)COCO2)C(=O)n1nnc2ccc(C#N)cc21", "note": "[Example 55, N-(2-(bis(4H-benzo[d][1,3]dioxin-6-yl)methoxy)ethyl)-6-cyano-N-methyl-1H-benzo[d][1,2,3]triazole-1-carboxamide]", "values": [{"measurement": "pIC50", "setting": "[1]", "value": "5.00 to 6.00"}, {"measurement": "pIC50", "setting": "[2]; [3]", "value": "8.00 to 9.00"}]}
{"smiles": "COc1ccc(N(c2ccc(F)cc2)C2CCN(C(=O)n3nnc4cc(C#N)ccc43)CC2)cc1", "note": "[Example 66, 1-(4-((4-fluorophenyl)(4-methoxyphenyl)amino)piperidine-1-carbonyl)-1H-benzo[d][1,2,3]triazole-5-carbonitrile]", "values": [{"measurement": "pIC50", "setting": "[1]", "value": "6.00 to 7.00"}, {"measurement": "pIC50", "setting": "[2]; [3]", "value": "8.00 to 9.00"}]}
{"smiles": "O=C(Nc1cccnc1)N1CCN(C(c2ccc3c(c2)COCO3)c2ccc3c(c2)COCO3)CC1", "note": "[Example 43, 4-(bis(4H-benzo[d][1,3]dioxin-6-yl)methyl)-N-(pyridin-3-yl)piperazine-1-carboxamide]", "values": [{"measurement": "pIC50", "setting": "[1]", "value": "< 4.30"}, {"measurement": "pIC50", "setting": "[2]; [3]", "value": "< 7.00"}]}
{"smiles": "Cc1ncn(C(=O)N2CCN(C(c3ccc4c(c3)COCO4)c3ccc4c(c3)COCO4)CC2)n1", "note": "[Example 28, (4-(bis(4H-benzo[d][1,3]dioxin-6-yl)methyl)piperazin-1-yl)(3-methyl-1H-1,2,4-triazol-1-yl)methanone]", "values": [{"measurement": "pIC50", "setting": "[1]", "value": "< 4.70"}, {"measurement": "pIC50", "setting": "[2]; [3]", "value": "7.70 to 9.00"}]}
{"smiles": "N#Cc1ccc2nnn(C(=O)N3CCN(C(c4ccc5c(c4)COCO5)c4ccc5c(c4)COCO5)CC3)c2c1", "note": "[Example 48, 1-(4-(bis(4H-benzo[d][1,3]dioxin-6-yl)methyl)piperazine-1-carbonyl)-1H-benzo[d][1,2,3]triazole-6-carbonitrile]", "values": [{"measurement": "pIC50", "setting": "[1]", "value": "< 4.70"}, {"measurement": "pIC50", "setting": "[2]; [3]", "value": "8.00 to 9.00"}]}
{"smiles": "O=C(OC(C(F)(F)F)C(F)(F)F)N1CCN(C(c2ccc3c(c2)COCO3)c2ccc3c(c2)COCO3)CC1", "note": "[Example 3, 1,1,1,3,3,3-hexafluoropropan-2-yl 4-(bis(4H-benzo[d][1,3]dioxin-6-yl)methyl)piperazine-1-carboxylate]", "values": [{"measurement": "pIC50", "setting": "[1]", "value": "< 4.30"}, {"measurement": "pIC50", "setting": "[2]; [3]", "value": "7.70 to 9.00"}]}
{"smiles": "S=C(N1CCN(C(c2ccc3c(c2)COCO3)c2ccc3c(c2)COCO3)CC1)n1cncn1", "note": "[Example 21, (4-(bis(4H-benzo[d][1,3]dioxin-6-yl)methyl)piperazin-1-yl)(1H-1,2,4-triazol-1-yl)methanethione]", "values": [{"measurement": "pIC50", "setting": "[1]", "value": "< 4.30"}, {"measurement": "pIC50", "setting": "[2]; [3]", "value": "< 7.00"}]}
